The conditions of test [1]: per 1 mg, National Formulary; cited from earlier work.
The nature of test [2]: Glucose control and lipid profile in Hp 2-2 DM mice given vitamin E. The format is in vivo. As to conditions: 40 mg/kg/day. From the text:
(§1) Hp transgenic mice and veneration of DM. All protocols were approved by the Animal Care and Use Committee of the Technion. […]. The characterization and generation of Hp 1 and Hp 2 mice in a C57B1/6 genetic background has previously been described in detail. Briefly, the murine Hp 1 allele is the wild type murine Hp allele. The Hp 2 allele exists only in man and a murine Hp 2 allele was genetically engineered in vitro and its insertion targeted at the Hp locus by homologous recombination. […] Diabetes was generated in these mice at 8 weeks of age using a low dose streptozotocin protocol (NIH Funded Consortium on Animal Models of Diabetic Complications protocol available on the consortium web site www.amdcc.org) and confirmed by measuring plasma glucose. Mice were diabetic for at least 1 month prior to analysis.
(§2) Vitamin E (racemic, alpha-tocopherol acetate, Merck) was administered to a subset of the Hp 2-2 DM mice at a dose of 40 mg/kg/day beginning three weeks after the induction of DM.

Test [3] has as its system J774 macrophages. The test is described as follows: Cholesterol efflux from J774 macrophages elicited by serum from Hp 2-2 DM mice treated with vitamin E. The format is in vivo. As to conditions: 40 mg/kg/day beginning three weeks after induction of DM, serum on J774 cells.
Source text: as §1, §2

Test [4] can be described thus: ICARE study: vitamin E versus placebo in Hp 2-2 Type II DM individuals (MI, stroke, CVD death). The format is in vivo, human. The source says: The study protocol of the ICARE study involves the following: participants were drawn from 47 primary health clinics of the Clalit Health Services in the northern sector of Israel. Patients were eligible for the study if they had Type II DM and were 55 years of age or older. […] These Hp 2-2 individuals were randomly assigned to treatment with either vitamin E or placebo. The major study outcomes (MI, stroke, CVD death) were identified prospectively in this population over an 18 month period. A preplanned secondary analysis of ICARE was to assess the ability of vitamin E therapy to influence outcomes in those ICARE participants who were also taking statins. Statin use as prospectively defined in ICARE was based on the use of statins by the participant in at least eight of the twelve months preceding enrollment of the participant in the study. The decision to use statins for a particular participant was under the discretion of the patient's primary care physician and was in no way influenced by the patient's participation in the ICARE study.
Robust clinical data has shown that individuals homozygous for the Hp 2 allele (Hp 2-2 genotype), 40% of DM individuals, have an up to 500% increased risk of CVD (21-24). A vast amount of basic science, animal and epidemiological data has provided the logic for targeting vitamin E administration specifically to DM individuals with the Hp 2-2 genotype. In the ICARE study (Israel CArdiovascular events Reduction with vitamin E (ClinicalTrials.gov# NCT00220831)) a prospective randomized placebo controlled trial of vitamin E therapy in DM individuals with the Hp 2-2 genotype, is was shown that vitamin E therapy results in a 50% reduction in CVD events. However, only about half of the Hp 2-2 DM participants in ICARE received statin therapy.

For test [5], the system named is J774 macrophage cells. The test is described as follows: HDL-mediated cholesterol efflux from J774 cells incubated with purified HDL, native or glycated Hb and Hp. As to conditions: efflux with purified HDL taken as 100%; 0.8 umol/L; 3-hour incubation. The format is cell-based, murine. The protocol: Cell Culture. J774 A.1 murine macrophage cells were purchased from the American Type Culture Collection (Manassas, Va.) and grown in DMEM supplemented with 5% FBS.
Cholesterol Efflux From Macrophages. Murine J774 cells (1×10^6/mL) were plated in 24-well plates for 48 hours, then washed and incubated in DMEM without serum containing ^3H-cholesterol (2 uCi/mL) for 1 hour. Cells were washed to remove unincorporated label and then incubated in 1 mL of DMEM supplemented with: (1) nothing (negative control); (2) purified HDL (100 ug/mL protein) (positive control); or (3) 30 uL of serum from individuals with or without DM with the different Hp genotypes. In studies using purified Hp and Hb rather than serum, the cells were incubated with purified HDL ([…] protein) with different combinations of native Hb, glycated Hb, Hp1-1, and Hp2-2 (all at 0.8 umol/L).
After a 3-hour incubation at 37° C. to permit efflux of ^3H-cholesterol from the cells into the medium, 500 uL of the medium was collected, the cells washed with PBS, and 0.1 N NaOH added to the cells. Cellular and medium ^3H-cholesterol were determined by liquid scintillation counting (LSC). The percentage of cholesterol efflux was calculated as the ratio of total counts per minute in the medium divided by the total counts per minute in the medium and in the cells. HDL-mediated cholesterol efflux (resulting from purified HDL or HDL found in the serum) was calculated after subtraction of the nonspecific efflux obtained in cells incubated in the absence of purified HDL or serum. Results reported for efflux elicited by serum samples are normalized for the serum HDL concentration derived as (measured efflux)(measured HDL in mg/dL)/50.

In test [6] the test system is HDL associated lipids. The test is described as follows: Measurement of HDL-associated lipid peroxides. The format is biochemical, human. As to conditions: Hb 1 umol/L, 100 ug HDL. The protocol: Measurement of HDL-Associated Lipid Peroxides. Glycosylated or nonglycosylated Hb (1 umol/L) was incubated with 100 ug of HDL and 20 umol/L ascorbic acid in PBS with or without Hp1-1 or Hp2-2 (equimolar to Hb) for 3 hours at 37° C. Lipid peroxides were measured as previously described.

These results are taken from patent US20090074740A1, “Use of haptoglobin genotyping in diagnosis and treatment of defective reverse cholesterol transport (RCT)” (priority 2007, published 2009).

Several values for one entry are separate records, joined by “and”; a condition that tells them apart may be missing. Identical values can stand only once. Entries after “also recorded” stand apart in the source; their conditions may differ.

On to `Cc1c(C)c2c(c(C)c1O)CCC(C)(CCCC(C)CCCC(C)CCCC(C)C)O2` (racemic) [all-rac-.alpha-tocopherol], for which the “specific activity of 1 mg” value in test [1] is 1.10 IU.

As for `CC(=O)Oc1c(C)c(C)c2c(c1C)CCC(C)(CCCC(C)CCCC(C)CCCC(C)C)O2` (racemic) [all-rac-α-tocopherol acetate], the “specific activity of 1 mg” value in test [1] is 1.00 IU.

As for `CC(=O)Oc1c(C)c(C)c2c(c1C)CCC(C)(CCC[C@H](C)CCC[C@H](C)CCCC(C)C)O2` (mixture of isomers) [vitamin E, alpha-tocopherol acetate], the “effect on glucose control” value in test [2] is recorded as “no effect”. Moreover, the “effect on the lipid profile” value in test [2] is on record as “no effect”. Also, the “effect on the impairment in cholesterol efflux produced by DM in Hp 2 mice” value was “prevented; also recorded: prevent the impairment in efflux” in test [3] and “prevent the impairment in efflux” in test [3] (listed as Vitamin E). Further, the “reduction in CVD events” value in test [4] (DM individuals with the Hp 2-2 genotype, ICARE overall) is reported as 50%. In addition, the “event rate (MI, stroke, CVD death)” value came to 1.3% in test [4] (Hp 2-2 DM individuals taking statins in at least eight of the twelve months before enrollment, 18 month period) and 1.7% in test [4] (Hp 2-2 DM individuals taking statins in at least one of the twelve months before enrollment). Moreover, in test [4] (Hp 2-2 DM individuals taking statins, 95% CI 0.15-0.83), the “hazard ratio [HR] versus placebo” value is listed as 0.31.

Turning to `CC(=O)Oc1c(C)c(C)c2c(c1C)CC[C@@](C)(CCC[C@H](C)CCC[C@H](C)CCCC(C)C)O2` [RRR-.alpha-tocopherol acetate], the “specific activity of 1 mg” value in test [1] was 1.36 IU.

As to `Cc1c(C)c2c(c(C)c1O)CC[C@@](C)(CCC[C@H](C)CCC[C@H](C)CCCC(C)C)O2` [RRR-.alpha-tocopherol], in test [1], the “specific activity of 1 mg” value was 1.49 IU.

Regarding “glycated Hb: Human hemoglobin glycated in vitro using glycolaldehyde”, the “reduction in HDL-mediated cholesterol efflux” value in test [5] was 35% and 34±3%. In addition, the “increase in HDL-associated lipid peroxides” value in test [6] (20 umol/L ascorbic acid, 3 hours at 37 C, mean of 2 independent experiments) is 142.3 nmol of lipid peroxide per milligram of HDL.

“native Hb: Native hemoglobin isolated from fresh human blood”: the “effect on HDL-mediated efflux of 3H-cholesterol” value in test [5] was “did not cause any reduction; also recorded: no effect”. Moreover, the “increase in HDL-associated lipid peroxides” value in test [6] (3 hours) is “no increase”.

B1: Haptoglobin: Highly conserved plasma glycoprotein, the major protein that binds free hemoglobin (protein, UniProt P00738 19-406, looked up)
Haptoglobin: VDSGNDVTDIADDGCPKPPEIAHGYVEHSVRYQCKNYYKLRTEGDGVYTLNDKKQWINKAVGDKLPECEADDGCPKPPEIAHGYVEHSVRYQCKNYYKLRTEGDGVYTLNNEKQWINKAVGDKLPECEAVCGKPKNPANPVQRILGGHLDAKGSFPWQAKMVSHHNLTTGATLINEQWLLTTAKNLFLNHSENATAKDIAPTLTLYVGKKQLVEIEKVVLHPNYSQVDIGLIKLKQKVSVNERVMPICLPSKDYAEVGRVGYVSGWGRNANFKFTDHLKYVMLPVADQDQCIRHYEGSTVPEKKTPKSPVGVQPILNEHTFCAGMSKYQEDTCYGDAGSAFAVHDLEEDTWYATGILSFDKSCAVAEYGVYVKVTSIQDWVQKTIAEN
As for B1, the “effect on HDL-mediated efflux of 3H-cholesterol” value in test [5] was “no effect”.
